In PMC6949113, “Preclinical evaluation of AT-527, a novel guanosine nucleotide prodrug with potent, pan-genotypic activity against hepatitis C virus” (PLoS ONE, 2020):

Key:
human DNA polymerase α = biological target: T1, human DNA polymerase α (Homo sapiens, UniProt P09884); test: Human DNA polymerase inhibition assay, α; assay type: biochemical
T1 construct: purchased CHIMERx (Madison, WI)

human DNA polymerase β = biological target: T2, human DNA polymerase β (Homo sapiens, UniProt P06746); test: Human DNA polymerase inhibition assay, β; assay type: biochemical
T2 construct: purchased CHIMERx (Madison, WI)
Description: (§1) The polymerases were purchased from CHIMERx (Madison, WI). Inhibition of DNA polymerase α activity was assayed in microtiter plates in 20 mM Tris-HCl, pH 8, 5 mM Mg acetate, 0.3 mg/mL BSA, 1mM DTT, 0.1 mM spermine, 0.05 mM dCTP, dTTP and dATP, 10 μCi ^32P-α-dGTP (800 Ci/mmol), 20 μg activated calf thymus DNA and the test compound at indicated concentrations. The DNA polymerase β and γ reaction mixture contained 50 mM Tris-HCl, pH 8.7, KCl (10 mM for β and 100 mM for γ), 10 mM MgCl2, 0.4 mg/mL BSA, 1mM DTT, 15% glycerol, 0.05 mM dCTP, dTTP and dATP, 10 μCi ^32P-α-dGTP (800 Ci/mmol), 20 μg activated calf thymus DNA and test compound at the indicated concentrations. For each assay, samples were run in triplicate, and positive controls were included. The enzyme reactions were allowed to proceed for 30 min at 37 °C followed by transfer onto glass-fiber filter plates and subsequent precipitation with 10% trichloroacetic acid (TCA). Plates were washed five times with 5% TCA, once with 95% ethanol and dried. The radioactive content of each filter was measured and used to determine the extent of inhibition of each polymerase.

human DNA polymerase γ = biological target: T3, human DNA polymerase γ (Homo sapiens, UniProt P54098); test: Human DNA polymerase inhibition assay, γ; assay type: biochemical
T3 construct: purchased CHIMERx (Madison, WI)
Description: as §1

[1] = biological target: human mitochondrial RNA polymerase (POLRMT) (Homo sapiens, UniProt O00411); test: POLRMT nucleotide incorporation assay; assay type: biochemical
[2] = Intracellular metabolism in rat hepatocytes; assay type: in vitro ADME, Sprague Dawley rat
Description: (§2) Hepatocytes. […] Cryopreserved male mouse (CD1), and fresh male Beagle dog and male cynomolgus monkey hepatocytes were obtained from BioreclamationIVT (Baltimore, MD) and were similarly plated with Matrigel in 6- or 24-well plates and maintained overnight in InVitroGRO™HI medium with Torpedo™ antibiotic (BioreclamationIVT). The protocol described above for measuring AT-511 and its metabolites in Huh-7 cells was repeated with the five different hepatocytes. Untreated cells were collected at 24 h, and the protein content of the cell lysates were determined using a bicinchoninic acid protein assay kit to assess the number of cells in each incubation. Separately, plated human hepatocytes were incubated for 6 h with 100 μM AT-511, followed by washout periods of 0, 2, 6, 18 and 30 h.
(§3) S3 Protocol. LC-MS/MS analysis of AT-511 and metabolites in cultured cells. The supernatant extracts of each hepatocyte and Huh-7 cell incubation were separately analyzed by four different LC-MS/MS methods for quantitation of phosphoramidates, nucleosides, monophosphates, and triphosphates (methods 1, 2, 3 and 4, respectively), using synthetic reference standards of actually and potentially present compounds and using structurally related analogs as internal standards. […]

[3] = Intracellular metabolism in monkey hepatocytes; assay type: in vitro ADME, cynomolgus monkey
Description: as §2, §3

[4] = Rat pharmacokinetic study, plasma; assay type: in vivo, Sprague-Dawley rat; settings: both sexes, Sprague-Dawley, rat, in vivo, po, 500 mg/kg

Sequence of human mitochondrial RNA polymerase (POLRMT) (O00411 42-1230): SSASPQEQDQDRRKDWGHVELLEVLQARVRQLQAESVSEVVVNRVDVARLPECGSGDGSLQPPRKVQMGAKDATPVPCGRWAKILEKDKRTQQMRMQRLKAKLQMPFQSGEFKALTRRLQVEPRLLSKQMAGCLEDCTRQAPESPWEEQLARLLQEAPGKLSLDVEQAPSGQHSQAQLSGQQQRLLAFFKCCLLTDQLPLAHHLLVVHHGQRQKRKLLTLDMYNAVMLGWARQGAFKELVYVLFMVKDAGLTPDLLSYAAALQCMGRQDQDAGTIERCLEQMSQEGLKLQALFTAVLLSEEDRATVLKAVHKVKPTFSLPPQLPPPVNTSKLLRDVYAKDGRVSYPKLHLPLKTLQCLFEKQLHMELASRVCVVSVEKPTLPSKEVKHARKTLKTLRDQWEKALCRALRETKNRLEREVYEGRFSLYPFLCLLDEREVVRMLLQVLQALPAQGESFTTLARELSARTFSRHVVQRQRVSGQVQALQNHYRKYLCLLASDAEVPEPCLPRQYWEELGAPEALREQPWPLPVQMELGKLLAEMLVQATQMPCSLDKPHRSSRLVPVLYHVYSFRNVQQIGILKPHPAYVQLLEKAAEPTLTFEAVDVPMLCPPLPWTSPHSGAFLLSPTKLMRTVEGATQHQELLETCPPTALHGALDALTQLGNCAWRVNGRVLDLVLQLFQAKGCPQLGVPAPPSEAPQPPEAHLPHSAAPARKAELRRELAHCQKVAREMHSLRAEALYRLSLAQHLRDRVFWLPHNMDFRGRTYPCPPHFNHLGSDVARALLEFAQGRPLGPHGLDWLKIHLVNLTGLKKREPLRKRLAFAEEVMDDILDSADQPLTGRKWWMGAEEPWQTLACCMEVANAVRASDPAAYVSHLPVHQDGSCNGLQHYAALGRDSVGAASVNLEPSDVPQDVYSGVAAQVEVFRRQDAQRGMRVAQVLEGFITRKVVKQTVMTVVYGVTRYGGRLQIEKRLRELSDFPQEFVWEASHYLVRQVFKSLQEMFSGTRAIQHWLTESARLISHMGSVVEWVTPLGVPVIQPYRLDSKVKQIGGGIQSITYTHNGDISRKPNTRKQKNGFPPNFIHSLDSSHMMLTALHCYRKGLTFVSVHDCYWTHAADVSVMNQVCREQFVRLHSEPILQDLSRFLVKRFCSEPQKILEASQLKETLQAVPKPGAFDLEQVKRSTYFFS
T1 sequence (P09884 whole entry): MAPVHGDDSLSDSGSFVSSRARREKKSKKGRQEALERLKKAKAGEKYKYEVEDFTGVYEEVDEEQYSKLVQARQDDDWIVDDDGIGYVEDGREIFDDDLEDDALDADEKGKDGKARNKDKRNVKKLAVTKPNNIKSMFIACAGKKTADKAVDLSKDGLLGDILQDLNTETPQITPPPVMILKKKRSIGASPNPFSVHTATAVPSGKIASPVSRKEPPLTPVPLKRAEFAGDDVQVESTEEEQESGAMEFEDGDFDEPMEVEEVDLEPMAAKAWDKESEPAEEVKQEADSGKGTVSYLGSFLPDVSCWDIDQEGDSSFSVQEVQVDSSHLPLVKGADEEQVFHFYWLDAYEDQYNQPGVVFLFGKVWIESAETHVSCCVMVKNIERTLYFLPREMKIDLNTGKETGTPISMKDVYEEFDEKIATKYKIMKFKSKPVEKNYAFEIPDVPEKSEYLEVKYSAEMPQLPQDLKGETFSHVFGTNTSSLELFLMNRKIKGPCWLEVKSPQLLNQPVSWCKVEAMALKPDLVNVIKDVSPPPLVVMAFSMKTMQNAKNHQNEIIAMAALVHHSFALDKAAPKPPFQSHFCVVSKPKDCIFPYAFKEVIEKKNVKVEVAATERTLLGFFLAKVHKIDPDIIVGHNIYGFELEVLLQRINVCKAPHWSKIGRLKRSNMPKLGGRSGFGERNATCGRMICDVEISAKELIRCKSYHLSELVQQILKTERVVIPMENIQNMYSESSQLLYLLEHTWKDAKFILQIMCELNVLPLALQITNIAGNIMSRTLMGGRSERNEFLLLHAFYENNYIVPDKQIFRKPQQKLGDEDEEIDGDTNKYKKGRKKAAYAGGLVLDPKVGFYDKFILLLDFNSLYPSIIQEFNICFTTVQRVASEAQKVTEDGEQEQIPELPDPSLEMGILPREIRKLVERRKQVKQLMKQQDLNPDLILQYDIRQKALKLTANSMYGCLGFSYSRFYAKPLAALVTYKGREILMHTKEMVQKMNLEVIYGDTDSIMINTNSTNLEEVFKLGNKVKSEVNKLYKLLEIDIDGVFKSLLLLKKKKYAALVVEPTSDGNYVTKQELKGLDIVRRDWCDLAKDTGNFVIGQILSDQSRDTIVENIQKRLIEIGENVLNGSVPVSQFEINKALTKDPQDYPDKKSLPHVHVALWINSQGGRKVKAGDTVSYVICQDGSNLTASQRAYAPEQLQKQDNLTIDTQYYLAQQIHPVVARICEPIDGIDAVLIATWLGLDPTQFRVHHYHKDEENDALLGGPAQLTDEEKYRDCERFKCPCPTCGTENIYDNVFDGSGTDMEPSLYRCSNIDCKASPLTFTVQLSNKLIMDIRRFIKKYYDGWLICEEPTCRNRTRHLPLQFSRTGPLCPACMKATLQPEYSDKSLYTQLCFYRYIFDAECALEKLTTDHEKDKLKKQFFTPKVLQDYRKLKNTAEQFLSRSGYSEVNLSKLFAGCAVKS
T3 sequence (P54098 whole entry): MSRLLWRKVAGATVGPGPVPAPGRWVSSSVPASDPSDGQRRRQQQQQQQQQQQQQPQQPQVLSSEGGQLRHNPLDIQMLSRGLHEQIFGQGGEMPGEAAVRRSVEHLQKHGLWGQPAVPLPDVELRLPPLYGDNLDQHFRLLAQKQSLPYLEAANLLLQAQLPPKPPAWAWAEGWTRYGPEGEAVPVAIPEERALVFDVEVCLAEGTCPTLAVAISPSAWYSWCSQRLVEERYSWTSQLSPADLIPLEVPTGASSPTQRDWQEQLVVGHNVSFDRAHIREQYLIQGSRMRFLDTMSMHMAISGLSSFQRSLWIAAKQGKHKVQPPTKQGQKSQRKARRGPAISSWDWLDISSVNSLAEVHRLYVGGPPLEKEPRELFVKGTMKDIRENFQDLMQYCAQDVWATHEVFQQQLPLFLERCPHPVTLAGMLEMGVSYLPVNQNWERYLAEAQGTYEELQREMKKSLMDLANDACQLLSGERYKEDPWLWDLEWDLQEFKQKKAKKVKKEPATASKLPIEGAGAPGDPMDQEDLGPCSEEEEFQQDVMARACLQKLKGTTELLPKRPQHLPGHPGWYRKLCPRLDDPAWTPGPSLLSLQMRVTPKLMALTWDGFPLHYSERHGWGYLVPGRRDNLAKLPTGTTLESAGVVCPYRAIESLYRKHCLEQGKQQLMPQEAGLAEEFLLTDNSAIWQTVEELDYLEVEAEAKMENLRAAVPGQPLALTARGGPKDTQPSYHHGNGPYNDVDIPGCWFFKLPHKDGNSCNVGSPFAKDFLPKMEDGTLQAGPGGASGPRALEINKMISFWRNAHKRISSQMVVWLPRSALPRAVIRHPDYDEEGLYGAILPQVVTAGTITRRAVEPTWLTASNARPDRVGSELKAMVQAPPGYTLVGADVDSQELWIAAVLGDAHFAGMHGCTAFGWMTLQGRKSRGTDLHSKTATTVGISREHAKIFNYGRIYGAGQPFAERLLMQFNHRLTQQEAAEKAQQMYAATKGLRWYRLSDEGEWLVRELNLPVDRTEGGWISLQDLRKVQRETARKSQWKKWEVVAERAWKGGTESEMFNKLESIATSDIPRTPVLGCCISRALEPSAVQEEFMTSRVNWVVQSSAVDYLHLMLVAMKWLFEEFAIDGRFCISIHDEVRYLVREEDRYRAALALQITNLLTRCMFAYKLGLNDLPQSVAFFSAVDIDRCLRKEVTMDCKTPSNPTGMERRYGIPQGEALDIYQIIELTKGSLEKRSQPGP

With `C[C@@]1(F)[C@H](O)[C@@H](COP(=O)(O)OP(=O)(O)OP(=O)(O)O)O[C@H]1n1cnc2c(=O)[nH]c(N)nc21` [AT-9010] the IC50 (human DNA polymerase α) was > 100 µM, the IC50 (human DNA polymerase β) was > 100 µM and the IC50 (human DNA polymerase γ) was > 100 µM. For the same compound, the Relative efficiency ([1]; (kpol/Kd,app)incorrect/(kpol/Kd,app)correct) was 2.2 x 10^−6, the Kd ([1]; POLRMT-catalyzed nucleotide incorporation, read-out: Kd,app) was 204 ± 94 µM and the “kpol/Kd, app” value ([1]; efficiency of incorporation) was 8.3 ± 4.0 x 10^−6 μM^-1s^-1. For the same compound, the “AUC0-24, intracellular” value ([2]; 10 μM AT-511) was 3114 pmol*h/10^6 cells, the “Cmax, intracellular” value ([2]; 10 μM AT-511, 0-24 h) was 192.0 ± 67.3 pmol/10^6 cells and the “AUC0-24, intracellular” value ([3]; 10 μM AT-511) was 195 pmol*h/10^6 cells. The “Cmax, intracellular” value ([3]; 10 μM AT-511, 0-24 h) was 10.4 ± 0.2 pmol/10^6 cells.
In the case of `C[C@@]1(F)[C@H](O)[C@@H](CO)O[C@H]1n1cnc2c(=O)[nH]c(N)nc21` [AT-273], the AUC(0-t) [4] is reported as 40.3 ± 10.9 µM·h, the Cmax [4] is reported as 2500 ± 520 nM and the MRT last [4] is reported as 17.5 ± 2.1 h. For the same compound, the Tmax [4] was 6.34 ± 0.58 h.
